Common to all, as to assay type: in vivo, human
The subject of one test is salivary microbiome. In words: 16S rRNA gene sequencing of saliva, randomized trial of antimicrobial mouth rinse. Particulars: LEfSe. An excerpt:
(§1) The enrolled subjects were those already scheduled for upper endoscopy for clinical indications. • Subjects were randomized 1:1 to receive 0.12% chlorhexidine mouth rinse or no treatment. • Antimicrobial mouth rinse was used twice daily for two weeks leading up to the endoscopy. The two-week time frame was chosen as a practical end-point for the clinical study, and treatment can be for any desired period of time, i.e. to obtain the desired microbiome mix. • Baseline sample collection: Saliva, oral swab. • Samples collected at follow-up (day of endoscopy): Saliva, oral swab, esophageal brushings, gastric cardia brushings.
(§2) Patients scheduled to undergo upper endoscopy were randomized to treatment with chlorhexidine 0.12% mouth rinse or no mouth rinse for two weeks leading up to the endoscopy. Oral samples (swabs and saliva) were collected at baseline and after two weeks. During the endoscopy, brushings of the esophagus and of the gastric cardia were collected to sample the microbiome.
16 S rRNA gene sequencing was performed on all of the biosamples. The V3-V4 hypervariable region for all samples was sequenced using the Illumina HiSeq 2500 in Rapid Mode with 2×300 bp read length (Illumina, San Diego, Calif.). The Greengenes reference database was used. Taxonomic units were clustered at 97% sequence similarity using USEARCH and taxonomic assignments were made using mothur. […]

The subject of test [1] is culturable bacteria in the esophagus. Briefly: Culture of esophageal brushings on TSA plates with 5% sheep blood after two weeks of mouth rinse (randomized trial). How it is done:
A randomized controlled trial of chlorhexidine antimicrobial mouth rinse study was conducted in patients scheduled to undergo upper endoscopy. It is postulated that the microbiome may play a role in the development of various esophageal and other upper gastrointestinal diseases such as Barrett's esophagus and esophageal cancer. The microbiome of the upper gastrointestinal tract is heavily influenced by migration of bacteria from the mouth via swallowed secretions. Therefore, it stands to reason that altering the oral microbiome can directly impact the microbiome of the esophagus and gastric cardia. Chlorhexidine mouth rinse (i.e. an antiseptic oral rinse) effectively alters levels of many bacteria in the mouth, including anaerobes and species that are not easily cultured, and also has anti-inflammatory effects. A randomized open-label pilot study was performed to test this hypothesis that use of an antimicrobial mouth rinse alters the microbiome of the lower esophagus and gastric cardia.
as §1, §2
An interim analysis was performed on the esophageal brushings collected during upper endoscopy. Approximately one half of the bacteria in the esophagus can be readily cultured. Thus, it was hypothesized that a change in the amount of culturable bacteria (either increased or decreased) would reflect a change in the proportion of culturable:non-culturable bacteria in the esophagus. Samples from the first 14 subjects (8 controls not using mouth rinse, 6 subjects using chlorhexidine mouth rinse) were collected, and solutions were prepared from these samples. The samples were then plated onto trypticase soy agar (TSA) plates with 5% sheep blood and incubated for 18 hours at 37° C.

The next test concerns esophageal microbiome. In words: 16S rRNA gene sequencing of esophageal brushings, randomized trial of antimicrobial mouth rinse.
Description: as §1, §2
16 S rRNA gene sequencing was performed on all of the biosamples. The V3-V4 hypervariable region for all samples was sequenced using the Illumina HiSeq 2500 in Rapid Mode with 2×300 bp read length (Illumina, San Diego, Calif.). The Greengenes reference database was used. Taxonomic units were clustered at 97% sequence similarity using USEARCH and taxonomic assignments were made using mothur. A phylogenetic tree of the contigs was generated with FastTree version 2.1.7.
In order to determine whether chlorhexidine alters the esophageal microbiome, a comparison of the microbiome composition from esophageal samples was performed, comparing the treatment and no treatment arms.

Where [2] appears, read: 0.12% mouth rinse twice daily for two weeks before endoscopy, n = 6, plated on TSA, 18 hours at 37° C.

As to `[H]/N=C(\N/C(=N/[H])NCCCCCCNC(=N)NC(=N)Nc1ccc(Cl)cc1)Nc1ccc(Cl)cc1` [Chlorhexidine, chlorhexidine], in the test with salivary microbiome (2 weeks' treatment, FIG. 4A), the “taxonomic changes in salivary microbiome after treatment compared to baseline” value is “Numerous taxa were altered”. Further, the “differences in salivary microbiome at follow-up versus no treatment in phylum Firmicutes and species Haemophilus parainfluenzae” value in the test on salivary microbiome (follow-up, FIG. 4B) is on record as “large differences were seen”. In test [1] (setting [2]), the “Mean (SE) CFU/mL from esophageal brushings collected at endoscopy” value was 56,433 (42,654) CFU/mL and the “Mean (SE) number of colonies from esophageal brushings collected at endoscopy” value is on record as 282 (213). Moreover, the “numbers of culturable bacteria (colonies and CFU/mL) in the esophagus compared to no chlorhexidine rinse” value in test [1] (FIGS. 3A-B) was “increased numbers of culturable bacteria”. For the same molecule, the “increase in growth of culturable bacteria compared to the arm not receiving mouth rinse” value in test [1] (esophageal brushings, 6 subjects using rinse vs 8 controls) is listed as 68%. For the same molecule, the “beta diversity analysis of esophageal microbiome, clustering by treatment group” value with esophageal microbiome (FIG. 5) was “significant clustering by treatment group”. In addition, the “esophageal microbiome composition compared to patients receiving no treatment” value in the test with esophageal microbiome (FIGS. 5-6) was “markedly distinct”. Moreover, in the test with esophageal microbiome (vs no treatment arm, FIG. 6), the “relative abundance of Haemophilus in the esophageal microbiome” value was “significantly decreased” and the “relative abundance of Streptococcus in the esophageal microbiome” value is recorded as “increased”.

Values taken from patent US11684595B2, “Characterization of the oral microbiome for the non-invasive diagnosis of Barrett's esophagus” (The Trustees of Columbia University in the City of New York, priority 2017, dated 2023).
